The values below come from article PMC10120512, “Benzenesulfonamide derivatives as Vibrio cholerae carbonic anhydrases inhibitors: a computational-aided insight in the structural rigidity-activity relationships” (Journal of Enzyme Inhibition and Medicinal Chemistry, 2023).

One assay concerns the target VchβCA (Vibrio cholerae, UniProt A0A086SLX8). The experiment in a line: biochemical.
Assay [1] deals with VchαCA (Vibrio cholerae, UniProt Q9KMP6). As to the kind of experiment: biochemical. It counts as biochemical.
Sequence of VchαCA (Vibrio cholerae, UniProt Q9KMP6) (Q9KMP6 entry or part of it): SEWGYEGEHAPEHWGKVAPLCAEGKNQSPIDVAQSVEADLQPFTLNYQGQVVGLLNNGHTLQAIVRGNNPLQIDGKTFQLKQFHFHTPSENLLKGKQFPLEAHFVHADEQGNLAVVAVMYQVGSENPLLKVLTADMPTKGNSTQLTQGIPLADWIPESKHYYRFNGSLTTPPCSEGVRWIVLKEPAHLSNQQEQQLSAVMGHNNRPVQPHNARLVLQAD
In the next assay the target is VchγCA (Vibrio cholerae, UniProt Q9KVT1). The experiment in a line: biochemical.
Sequence of VchγCA (Q9KVT1 1-184): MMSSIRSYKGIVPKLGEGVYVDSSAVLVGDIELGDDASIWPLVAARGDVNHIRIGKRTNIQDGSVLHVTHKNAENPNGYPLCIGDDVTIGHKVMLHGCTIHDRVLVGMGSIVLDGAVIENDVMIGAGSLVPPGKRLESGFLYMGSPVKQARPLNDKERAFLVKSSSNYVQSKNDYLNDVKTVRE
Assay [2] deals with VchαCA. As to the kind of experiment: biochemical. Type of assay: biochemical. As to conditions: for SI [ KI hCA I/KI VchαCA ]: selectivity index hCA I over VchαCA; for SI [ KI hCA II/KI VchαCA ]: selectivity index hCA II over VchαCA.
Assay [3] deals with clinical isolates of V. cholerae (SI-Vc22, SI-Vc71, SI-Vc912). The experiment in a line: Direct antibacterial activity, agar diffusion method. For all read-outs here: test concentration or dose not given here. Type of assay: cell-based. The settings on record: for inhibition zone diameter: all the isolates, data not shown; for growth inhibition against at least one of the clinical isolates: 2 μL spot, 37 °C, 24 h. On the technique in general: In agar diffusion tests the substance spreads into inoculated agar from a disc or well.

The structures appear in SMILES notation.

Sequence of VchβCA (A0A086SLX8 entry or part of it): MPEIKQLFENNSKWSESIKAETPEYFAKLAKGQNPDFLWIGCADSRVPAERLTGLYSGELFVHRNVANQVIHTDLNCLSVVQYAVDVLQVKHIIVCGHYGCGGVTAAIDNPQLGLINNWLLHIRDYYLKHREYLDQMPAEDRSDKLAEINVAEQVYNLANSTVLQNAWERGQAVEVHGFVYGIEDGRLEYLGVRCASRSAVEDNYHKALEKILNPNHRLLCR

Broadly, the Ki is a dissociation constant, usually derived from enzyme kinetics or from competition with a known ligand. Read a low Ki as higher affinity. `NS(=O)(=O)c1ccc(NC(=O)CNCc2ccccc2)cc1` [8b]: the Ki is 53.2 µM on VchβCA and 0.0614 µM at VchαCA [1].

Take `NS(=O)(=O)c1ccc(N2CCN(Cc3ccccc3)C2=O)cc1` [8c]: the Ki amounted to 8.1 µM at VchγCA, 127 µM on VchβCA and 0.0026 µM on VchαCA [1]. For the same molecule, the “SI [ KI hCA I/KI VchαCA ]” value with VchαCA [2] came out at 3.1. In addition, the “SI [ KI hCA II/KI VchαCA ]” value in the assay on VchαCA [2] is reported as 1.2.

Turning to `CCCCNCCNc1ccc(S(N)(=O)=O)cc1` [9a], in assay [3], the inhibition zone diameter is 3–5 mm. Further, the Ki on VchβCA was determined as 115 µM. On VchαCA [1], this molecule registered an inhibition constant Ki of 0.0788 µM. In the assay on VchαCA [2], the “SI [ KI hCA I/KI VchαCA ]” value is 6.8 and the “SI [ KI hCA II/KI VchαCA ]” value was 1.0.

Turning to `CCCCNCC(=O)Nc1ccc(S(N)(=O)=O)cc1` [9b], the “growth inhibition against at least one of the clinical isolates” value in assay [3] is “moderate growth inhibition”. The inhibition constant Ki at VchβCA amounted to 141 µM; on VchαCA [1], 0.0786 µM.

Regarding `CC(C)NCCNc1ccc(S(N)(=O)=O)cc1` [10a], the inhibitory constant (Ki) on VchγCA is 92.9 µM; on VchβCA it was 12.5 µM; at VchαCA [1], 0.0075 µM. Further, the “SI [ KI hCA I/KI VchαCA ]” value in the assay with VchαCA [2] was 119.5. In the assay with VchαCA [2], the “SI [ KI hCA II/KI VchαCA ]” value worked out at 45.0.

Take `CC(C)NCC(=O)Nc1ccc(S(N)(=O)=O)cc1` [10b]: the inhibition constant Ki at VchγCA came to 58.3 µM; at VchβCA it was 4 µM; at VchαCA [1], 0.0362 µM. The “SI [ KI hCA I/KI VchαCA ]” value in the assay with VchαCA [2] stood at 2.5. Besides, the “SI [ KI hCA II/KI VchαCA ]” value in the assay with VchαCA [2] is recorded as 0.7.

Consider `CC(C)N1CCN(c2ccc(S(N)(=O)=O)cc2)C1=O` [10c], for which the Ki at VchγCA came out at 64.5 µM; at VchβCA, 113 µM; at VchαCA [1] it was 0.0098 µM. In addition, in the assay with VchαCA [2], the “SI [ KI hCA I/KI VchαCA ]” value stood at 0.9. In addition, in the assay with VchαCA [2], the “SI [ KI hCA II/KI VchαCA ]” value came to 0.3.

`NS(=O)(=O)c1cccc(NCCNc2ccccc2)c1` [11a]: in assay [3], the “growth inhibition against at least one of the clinical isolates” value is listed as “moderate growth inhibition” and the inhibition zone diameter is listed as 3–5 mm. In addition, affinity at VchβCA was put at a Ki of 15.6 µM. For the same molecule, the Ki on VchαCA [1] came to 0.063 µM. Also, in the assay with VchαCA [2], the “SI [ KI hCA I/KI VchαCA ]” value came to 0.1 and the “SI [ KI hCA II/KI VchαCA ]” value turned out to be 0.1.

For `NS(=O)(=O)c1cccc(N2CCN(c3ccccc3)C2=O)c1` [11c], the figures for the Ki at VchγCA, at VchβCA and on VchαCA [1] were 6.5 µM, 100 µM and 0.0503 µM, respectively. For the same molecule, the “SI [ KI hCA I/KI VchαCA ]” value in the assay with VchαCA [2] is given as 1.2. Also, the “SI [ KI hCA II/KI VchαCA ]” value in the assay with VchαCA [2] is 0.6.

As for `Cc1ccc(NCCNc2cccc(S(N)(=O)=O)c2)cc1` [12a], the Ki on VchγCA is 79 µM; at VchβCA, 173 µM; on VchαCA [1], 0.0441 µM.

On to `Cc1ccc(NCC(=O)Nc2cccc(S(N)(=O)=O)c2)cc1` [12b], for which the Ki at VchγCA stood at 9.6 µM; at VchβCA it was 121 µM; on VchαCA [1], 0.0731 µM. In addition, the “SI [ KI hCA I/KI VchαCA ]” value in the assay with VchαCA [2] is 1.2. In addition, the “SI [ KI hCA II/KI VchαCA ]” value with VchαCA [2] stood at 0.1.

Turning to `Cc1ccc(N2CCN(c3cccc(S(N)(=O)=O)c3)C2=O)cc1` [12c], the inhibition constant (Ki) at VchγCA came to 76 µM; on VchαCA [1], 0.011 µM.

In the case of `NS(=O)(=O)c1cccc(NC(=O)CNc2ccc(Cl)cc2)c1` [13b], the values for the Ki on VchβCA and on VchαCA [1] were 70.4 µM and 0.0755 µM, respectively. Also, the “SI [ KI hCA I/KI VchαCA ]” value in the assay with VchαCA [2] is recorded as 3.6. In the assay with VchαCA [2], the “SI [ KI hCA II/KI VchαCA ]” value is listed as 0.4.

Regarding `NS(=O)(=O)c1cccc(N2CCN(c3ccc(Cl)cc3)C2=O)c1` [13c], the Ki at VchγCA came to 73.7 µM; at VchβCA it was 122 µM; on VchαCA [1], 0.004 µM. For the same molecule, in the assay on VchαCA [2], the “SI [ KI hCA I/KI VchαCA ]” value stood at 7.6. Besides, in the assay with VchαCA [2], the “SI [ KI hCA II/KI VchαCA ]” value amounted to 21.0.

Molecule `NS(=O)(=O)c1cccc(NCCNc2ccccc2Br)c1` [14a] returned an inhibitory constant (Ki) at VchβCA of 97 µM. Moreover, the Ki on VchαCA [1] is 0.0635 µM. Besides, in the assay with VchαCA [2], the “SI [ KI hCA I/KI VchαCA ]” value is listed as 0.1 and the “SI [ KI hCA II/KI VchαCA ]” value was 0.1.

`NS(=O)(=O)c1cccc(NC(=O)CNc2ccccc2Br)c1` [14b]: the Ki worked out at 72.4 µM on VchγCA, 16 µM at VchβCA and 0.0723 µM at VchαCA [1]. The “SI [ KI hCA I/KI VchαCA ]” value with VchαCA [2] came to 0.3.

Regarding `NS(=O)(=O)c1cccc(N2CCN(c3ccccc3Br)C2=O)c1` [14c], the Ki at VchγCA came out at 81.3 µM; on VchβCA, 132 µM; at VchαCA [1] it was 0.01 µM. The “SI [ KI hCA I/KI VchαCA ]” value in the assay with VchαCA [2] is recorded as 0.8. Besides, the “SI [ KI hCA II/KI VchαCA ]” value in the assay with VchαCA [2] came to 5.4.

`CCCCNCCNc1cccc(S(N)(=O)=O)c1` [15a]: the inhibitory constant (Ki) on VchγCA was 69.3 µM; at VchβCA, 56.5 µM; at VchαCA [1], 0.0803 µM. Besides, in the assay with VchαCA [2], the “SI [ KI hCA I/KI VchαCA ]” value is listed as 1.9. Moreover, in the assay with VchαCA [2], the “SI [ KI hCA II/KI VchαCA ]” value was 0.5.

Regarding `CCCCNCC(=O)Nc1cccc(S(N)(=O)=O)c1` [15b], the results for the Ki on VchγCA, on VchβCA and on VchαCA [1] were 73.6 µM, 116 µM and 0.0664 µM, respectively. For the same molecule, in the assay with VchαCA [2], the “SI [ KI hCA I/KI VchαCA ]” value turned out to be 1.3. The “SI [ KI hCA II/KI VchαCA ]” value in the assay with VchαCA [2] is 0.6.

For the molecule `CCCCN1CCN(c2cccc(S(N)(=O)=O)c2)C1=O` [15c], the inhibition constant (Ki) at VchγCA worked out at 8 µM; on VchβCA, 122 µM; at VchαCA [1], 0.047 µM. In addition, in the assay with VchαCA [2], the “SI [ KI hCA I/KI VchαCA ]” value was determined as 0.8. The “SI [ KI hCA II/KI VchαCA ]” value in the assay on VchαCA [2] is 0.2.
